Assay results as given in patent US20080112992A1, “METHOD FOR CONTROLLING THE APPLICATION OF AN INSECTICIDE AND COMPOSITION THEREOF” (FLIT.S.A., priority 2001, published 2008).

Assay: Colour change time after spraying on surfaces and drying in air
Format: physicochemical
Protocol: This composition of a pH of about 7.0 and of a yellow colour was applied by spraying to various kinds of surfaces, such as wood, painted wood, painted walls, ceramic tile, plastic (polyethylene), glass and stainless steel.
After about 40 minutes of exposure to air (including carbon dioxide), the composition was dried and the yellow colour disappeared.
Other levels of 4-nitrophenol were tested, and it was shown that with 0.05 wt % the yellow colour was somewhat faint but with a shorter colour changing time (about 25 min.), whereas with highest content, i.e. 0.5 resp. 1.0%, the colour change takes more time, i.e. 70 resp. 120 min.
Phenolphthalein was also tested at levels of 0.01 to 1.0 wt %, which all gave acceptable results and a colour change of about 40 min. The pH of the composition was initially adjusted to 9.4 using triethanolamine.

| colour change time (phenolphthalein at 0.01 to 1.0 wt %, pH initially adjusted to 9.4 using triethanolamine) | SMILES | colour changing time (0.05 wt % 4-nitrophenol in the composition, yellow colour somewhat faint) | colour change time (0.5 % 4-nitrophenol in the composition) [min] | colour change time (1.0 % 4-nitrophenol in the composition) [min] |
| --- | --- | --- | --- | --- |
| about 40 min. | O=C1OC(c2ccc(O)cc2)(c2ccc(O)cc2)c2ccccc21 [Phenolphthalein, phenolphthalein] |  |  |  |
|  | O=[N+]([O-])c1ccc(O)cc1 [4-nitrophenol] | about 25 min. | 70 | 120 |
